Results on 91 compounds are retold here after PubChem BioAssay AID1259371 (The Scripps Research Institute Molecular Screening Center, 2018).

Calls of active or inactive are those of the source. No rule for the calls is given here.

Sequence of Microphthalmia-associated transcription factor (Homo sapiens) (O75030 whole entry, looked up): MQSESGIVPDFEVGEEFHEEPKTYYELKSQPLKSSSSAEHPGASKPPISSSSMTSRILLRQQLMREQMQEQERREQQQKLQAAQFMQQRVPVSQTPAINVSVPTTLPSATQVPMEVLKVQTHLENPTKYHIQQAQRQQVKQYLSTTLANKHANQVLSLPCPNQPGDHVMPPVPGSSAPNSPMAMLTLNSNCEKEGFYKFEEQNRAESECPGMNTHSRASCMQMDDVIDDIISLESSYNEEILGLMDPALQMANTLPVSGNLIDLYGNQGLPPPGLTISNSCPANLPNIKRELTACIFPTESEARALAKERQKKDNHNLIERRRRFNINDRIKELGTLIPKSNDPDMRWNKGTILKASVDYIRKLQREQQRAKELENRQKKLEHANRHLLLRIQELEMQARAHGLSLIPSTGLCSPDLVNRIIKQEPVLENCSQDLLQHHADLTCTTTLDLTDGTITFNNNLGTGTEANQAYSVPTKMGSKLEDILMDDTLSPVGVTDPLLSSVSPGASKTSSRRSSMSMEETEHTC

The assay addresses Microphthalmia-associated transcription factor (Homo sapiens) (UniProt O75030). The assay can be described thus: compounds blocking human MITF signal – biochemical, AlphaScreen, dose response (AID 1259371). Conditions: AlphaScreen biochemical MITF assay, signal inhibition. (Bead proximity is the source of the signal in Alpha formats.)
For the compound `CN(C)CCn1nnnc1SCC1=C(C(=O)O)N2C(=O)[C@@H](NC(=O)Cc3csc(N)n3)[C@H]2SC1`, the IC50 was 215 nM. For the compound `COc1ccc(CN2CCN(Cc3cccc(Cl)c3)CC2)cc1Br`, the IC50 entry is “inactive”. To `CN(C)CCOCCOc1ccccc1-c1ccccc1` belongs “inactive”. Regarding `O=C(O)CCCNC(=O)/C=C/c1ccco1`, the IC50 is > 2160 nM (inactive). Consider `O=C(NNC(=O)c1cc(-c2ccco2)nc2ccccc12)NC1CCCCC1`, for which the IC50 was 126 nM. As to `Cc1ccc(COc2ccc(/C=N/N=C3\NC(=O)C(CC(=O)O)S3)cc2)cc1` (stereo unspecified), the IC50 result was “inactive”. `O=C1N[C@@H](Cc2ccccc2)C(=O)N2CCN(C(=O)NCc3ccccc3)C[C@H]12`: the IC50 was > 6480 nM (inactive). For `CC(C)C[C@@H]1NC(=O)[C@H]2CN(C(=O)NC3CCCCC3)CCN2C1=O`, the IC50 is 985 nM.

On to `Cc1ccc(S(=O)(=O)C(CNC(=O)c2ccco2)c2cccs2)cc1` (stereo unspecified), for which the IC50 entry is “inactive”. As for `CNC(=O)COc1cc(-c2cn[nH]c2)ccc1NC(=O)C1COc2ccc(OC)cc2C1` (stereo unspecified), the entry is “inactive”. Turning to `CCN(CC)c1ncnc2c1ncn2[C@@H]1O[C@H](COP(=O)(O)OP(=O)(O)C(Br)(Br)P(=O)(O)O)C(O)[C@@H]1O` (stereo partly specified), the IC50 is 175 nM. With `Cc1ccc(-c2nnc3s/c(=C\c4ccco4)c(=O)n23)cc1`, the IC50 entry is “inactive”. To `O=S(=O)(N=S(=O)(/C=C/c1ccccc1)c1ccccc1)c1ccccc1` (stereo unspecified) belongs > 5360 nM (inactive); to `CC[C@@H]1NC(=O)[C@H]2CN(C(=O)NCc3ccccc3)CCN2C1=O`, 436 nM.

As for `CN(C)/C=C/C=C/C(=O)c1cccc(C(=O)/C=C/C=C/N(C)C)c1O`, the IC50 is 303 nM. In the case of `O=C(OC1CCOC1=O)c1cc(-c2ccco2)nc2ccccc12` (stereo unspecified), the IC50 was 338 nM. Take `O=C(COC(=O)/C=C/c1ccco1)COC(=O)/C=C/c1ccco1`: the IC50 was 122 nM. For `O=c1[nH]cccc1-c1ccc(Nc2nccc(-c3ccc4nc(C5CC5)[nH]c(=O)c4c3)n2)cc1`, the IC50 entry is “inactive”. To `O=C1NC(=S)N/C1=C\c1ccc([N+](=O)[O-])o1` belongs 239 nM. To `CCOC(=O)c1cc(N2C(=O)C3C4C=CC(C4)C3C2=O)ccc1Cl` (stereo unspecified) belongs “inactive”; to `N#Cc1c(-c2ccc3c(c2)OCO3)nc(N2CCCCC2)[nH]c1=O`, “inactive”. Turning to `COc1cccc(COC(=O)Nc2cc(F)c(-c3cn[nH]c3)cc2OCCN(C)C)c1`, the IC50 entry was “inactive”.

On to `N#C/C(=C\c1nn(-c2ccccc2)c(N)c1C#N)c1ccco1`, for which the IC50 is 386 nM.

With `O=C(O)c1cc(S(=O)(=O)Nc2ccc3cn[nH]c3c2)ccc1O`, the IC50 entry was “inactive”. As to `CCOC(=O)Cc1[nH]nc2c1C1(C(=O)N(CC)c3ccccc31)C(C#N)=C(N)O2` (stereo unspecified), the IC50 was > 6480 nM (inactive).

`Clc1ccc2c(c1)CC(c1nc(Nc3cncnc3)c3ccccc3n1)CO2` (stereo unspecified): the IC50 entry was “inactive”. As for `O=C(O)CCC(NCc1ccco1)C(=O)O` (stereo unspecified), the IC50 is 806 nM. As for `Cc1ccc([N+](=O)[O-])cc1S(=O)(=O)Nc1ccc(Nc2ncccc2[N+](=O)[O-])cc1`, the figure is 423 nM; as for `O=C(O)c1cccc(-n2cccc2/C=C2/NC(=O)N(c3ccc(Cl)cc3)C2=O)c1`, 42.2 nM. As for `Cn1c(SCc2cc(=O)n3c(n2)sc2ccccc23)nnc1C(F)(F)F`, the IC50 entry was “inactive”.

Regarding `O=C(Cn1ncn2cccc2c1=O)N1CCc2ccccc2C1`, the IC50 was > 6480 nM (inactive). On to `CCOc1cc(-c2ccc(I)o2)cc(=O)c2c(C)oc(C)c12`, for which the IC50 is 2.55 nM. As to `O=C(Nc1ccc(-c2ccncc2)c(C(F)(F)F)c1)C1COc2ccccc2O1` (stereo unspecified), the IC50 result was “inactive”. Regarding `COc1ccc2c(c1)CC(c1nc(Nc3ccc4cnccc4c3)c3ccccc3n1)CO2` (stereo unspecified), the IC50 is > 6480 nM (inactive). To `CN(CCc1ccccn1)Cc1ccc(F)cc1` belongs “inactive”; to `O=C(NC1CCCCC1)N1CCN2C(=O)[C@H]3CCCN3C(=O)[C@H]2C1`, 467 nM; to `O=C(O)c1ccc(CS(=O)(=O)c2ccccc2)o1`, 146 nM. Take `C=CCc1cc(C)ccc1OCCCCn1ccnc1`: the IC50 was > 6480 nM (inactive). Turning to `S=c1[nH]nc(-c2ccco2)n1/N=C/C=C/c1ccco1`, the IC50 was 5.3 nM.

As to `O=S(=O)(c1ccccc1C(F)(F)F)N1CCC(c2nc3ccccc3[nH]2)CC1`, the IC50 was 470 nM. For `CCn1ccnc1CN1CCN(Cc2cccc(OC)c2)C(CCO)C1` (stereo unspecified), the IC50 is > 6480 nM (inactive). Regarding `Cc1cccc(NC(=O)c2ccc(NS(=O)(=O)c3ccc4[nH]cc(C(=O)O)c(=O)c4c3)cc2)c1`, the IC50 was > 1580 nM (inactive).

Take `Cc1occc1C(=O)N/N=C/C=C/c1ccco1`: the IC50 is 11.2 nM. As to `N#C/C(=C(/O)COC(=O)c1cc2c(s1)CCC2)c1nc2ccccc2[nH]1`, the IC50 was 693 nM. As for `O=C(OC1CCCC1=O)c1ccc(N2CCCC2=O)cc1` (stereo unspecified), the IC50 result is “inactive”. Regarding `COc1cc(CN2CCN(C3CCCC3)CC2)cc(OC)c1OC`, the IC50 is > 6480 nM (inactive).

As to `CCc1ccc(CN2CCN(C(C)C)CC2)cc1`, the IC50 is > 6890 nM (inactive).

Regarding `Cc1ccn2c(NCC3CCCO3)c(-c3ccc(O)cc3O)nc2c1` (stereo unspecified), the IC50 was 80.9 nM.

For the compound `CC(O)C(=O)N/N=C/C=C/c1ccc([N+](=O)[O-])o1` (stereo unspecified), the IC50 result was “inactive”. With `CCc1ccc(NC(=O)CS(=O)CC(=O)NCCCc2ccccc2)cc1` (stereo unspecified), the IC50 was > 6480 nM (inactive). As for `COc1cc(OC)c(CN2CCCC(O)C2)cc1Br` (stereo unspecified), the figure is > 6480 nM (inactive). Take `O=C(COc1ccccc1C(=O)OC1CCCC1=O)Nc1cccc(C(F)(F)F)c1` (stereo unspecified): the IC50 result is “inactive”. As for `C[C@@H](O)[C@@H]1NC(=O)[C@H]2CN(C(=O)NC3CCCCC3)CCN2C1=O`, the IC50 entry is “inactive”.

For `O=C1N[C@H](CO)C(=O)N2CCN(C(=O)NCc3ccccc3)C[C@H]12`, the IC50 was 526 nM. Take `C[C@H]1C(=O)N2CCN(C(=O)NCc3ccccc3)C[C@@H]2C(=O)N1C`: the IC50 entry was “inactive”. In the case of `CN(C)CCS(=O)c1cc(-c2cn[nH]c2)ccc1NC(=O)[C@@H]1Cc2cc(F)ccc2CN1` (stereo partly specified), the IC50 entry was “inactive”. As for `O=C(Nc1ccc(N2CCOCC2)cc1)c1ccc2nc(-c3cccs3)sc2c1`, the entry is “inactive”; as for `Cc1ccc(C(=O)Nc2ccc([N+](=O)[O-])cn2)o1`, > 6480 nM (inactive). Turning to `C[C@@H](OCc1ccccc1)[C@@H]1NC(=O)[C@H]2CN(C(=O)NC3CCCCC3)CCN2C1=O`, the IC50 result is “inactive”.

For the compound `Nc1ccc(C(=O)O)c(O)c1`, the IC50 was 63.5 nM.

As for `Clc1ccc(CN2CCN(Cc3c[nH]c4ccccc34)CC2)cc1`, the IC50 result was “inactive”. To `COc1ccc(C[C@@H]2NC(=O)[C@H]3CN(C(=O)NC4CCCCC4)CCN3C2=O)cc1` belongs “inactive”; to `Cc1[nH][nH]c(=O)c1C(c1ccccc1OCc1ccc(Br)cc1)c1c(C)[nH][nH]c1=O`, “inactive”; to `Cc1ccc(N2C(=O)c3ccccc3NC2c2cccc([N+](=O)[O-])c2)cc1` (stereo unspecified), > 5150 nM (inactive). As to `O=[N+]([O-])c1cc(C=Nc2ccc(N3CCOCC3)cc2)c(O)c([N+](=O)[O-])c1`, the IC50 was 753 nM.

As for `NC1(C(Cl)(Cl)Cl)Oc2ccccc2O1`, the IC50 is 232 nM. Consider `CCN1CCN(CCOCCOc2ccc(F)cc2)CC1`, for which the IC50 is > 6480 nM (inactive).

For the compound `O=C(O)c1cc2ncc(-c3n[nH]c(-c4cnc5cc(C(=O)O)nn5c4)c3[N+](=O)[O-])cn2n1`, the IC50 was 641 nM. In the case of `Cc1[nH][nH]c(=O)c1C(c1ccc([N+](=O)[O-])o1)c1c(C)[nH][nH]c1=O`, the IC50 is > 6480 nM (inactive). Consider `CC(=O)Oc1cc(C(=O)OCC(=O)Nc2ccc(C)cc2)cc(OC(C)=O)c1OC(C)=O`, for which the IC50 result was “inactive”. Consider `COc1cc(/C=C2\C(C)=C([N+](=O)[O-])CS2(=O)=O)ccc1O`, for which the IC50 is 30.8 nM.

In the case of `Cc1cc(/C=C2/C=CC(=O)O2)oc1C`, the IC50 is 651 nM.

`Cc1cc2ncn(Cc3noc(-c4ccco4)n3)c2cc1C`: the IC50 was > 6480 nM (inactive). For `O=C(/C=C/c1ccco1)ON1C(=O)c2ccccc2C1=O`, the IC50 is > 6480 nM (inactive). Turning to `COc1ccccc1C1(NC(=O)CCCCC2SCC3NC(=O)NC32)CCCC1` (stereo unspecified), the IC50 entry is “inactive”. As to `COc1ccc2c3c(cccc13)C(=O)N(C)C2=O`, the IC50 result is “inactive”. `N#Cc1c(-c2ccco2)cc(-c2ccco2)nc1N`: the IC50 is 20 nM. Turning to `CC1=C(C#N)C(c2cc3c(cc2[N+](=O)[O-])OCO3)C2=C(CCCC2=O)N1` (stereo unspecified), the IC50 result is “inactive”. For `CC(C)C[C@H]1C(=O)N2CCN(C(=O)NC3CCCCC3)C[C@@H]2C(=O)N1C`, the IC50 is > 2160 nM (inactive). For the compound `S=c1[nH]nc(-c2cccnc2)n1/N=C/C=C/c1ccco1`, the IC50 is 472 nM. Consider `O=C1S/C(=C\c2ccco2)C(=O)N1c1ccccc1Cl`, for which the IC50 was 809 nM. As for `Cc1ccc(N[C@@H]2OC[C@@H](O)C(O)C2O)cc1N[C@@H]1OC[C@@H](O)C(O)C1O` (stereo partly specified), the entry is “inactive”.

Consider `CN1C(=O)[C@H]2CN(C(=O)NC3CCCCC3)CCN2C(=O)[C@@H]1CO`, for which the IC50 was > 6480 nM (inactive).

For `O=C(O)c1ccccc1-c1ccc(/C=C/[N+](=O)[O-])o1`, the IC50 is 460 nM.

Turning to `O=P(O)(O)C(Sc1ccc(Cl)cc1)P(=O)(O)O`, the IC50 is 62.6 nM.

As for `CC[C@@H]1NC(=O)[C@H]2CN(C(=O)NC3CCCCC3)CCN2C1=O`, the IC50 was 270 nM. On to `O=C(c1ccncc1)N1CCN(Cc2ccccc2[N+](=O)[O-])CC1`, for which the IC50 is > 6130 nM (inactive). As for `O=C(c1cccc(F)c1)N1CCN(Cc2ccncc2)CC1`, the IC50 was > 5660 nM (inactive). For the compound `Cc1ccc(/C=C/C(=O)NCc2ccccn2)o1`, the IC50 entry was “inactive”. For the compound `CCOc1ncccc1C(=O)OCC(=O)Nc1oc(-c2ccco2)c(-c2ccco2)c1C#N`, the IC50 was 557 nM. To `O=C(CCCCC1SCC2NC(=O)NC21)NC1(c2ccc(F)cc2)CCCC1` (stereo unspecified) belongs “inactive”.

For orientation: IC50 means the concentration at which inhibition is half-maximal.
